Experimental data from patent US5691338A, “1,2-dithiole-3 thiones for the treatment of reverse transcriptase-dependent viral infections” (priority 1995, dated 1997).
Entries after “also recorded” stand apart in the source; their conditions may differ. Where two headings read alike, the source gives them in different places.

How the values were obtained:
[1] = system: HIV-1 (HTLVIIIB); assay: microbe, parasite or virus in culture; details: for synergy in inhibiting HIV-1 replication: p24 release / IFA, H9 cells, high viral inhibition
Procedure: The effects for test compounds were assessed by means of both IFA and p24 release. In general, the following protocol was followed: H9 cells were infected with HIV-1 at 1000 50% infective doses of viruses/10^6 cells. Virus was allowed to adsorb for 1 h, after which unadsorbed virus was removed by centrifugation. The cells were resuspended and washed twice with PBS (without Ca^+2 or Mg^+2 salts) and centrifuged to collect the cell pellet (150×g×10 min). Cells were suspended in fresh medium and added at a final cell density of 500,000 cells/ml in a 96-well plate with media containing 0.1% DMSO and various concentrations of test compounds. The cells were re-fed freshly prepared media containing 0.1% DMSO±test compounds on day four (for preinduction experiments, cells were exposed to inducers on days -2, 0, and +4 days relative to infection). After seven days, cells were examined for cytoxicity by trypan blue exclusion, the degree of infection with HIV-1 by IFA, and the supernatants were assayed for p24 levels according to the manufacturer's directions. The IFA procedure can be summarized as follows: The cells were washed twice in PBS and were placed in 5 mm 12-well slides. After allowing the slides to dry and fixing the cells with acetone for 5 min, 10 μl of HIV-1 positive serum in 40 μl PBS was added to each well and allowed to incubate at 37° C. for 30 min. After incubation, the slides were washed twice with PBS and incubated at 37° C. for 30 min with 2.5 μl goat anti-human IgG-fluorescein isothiocyanate conjugate in 50 μl PBS containing 0.01% Evans Blue per well. The slides were then washed twice with PBS, dried, and mounted with 50% glycerol in PBS, and scored for the percentage of fluorescent cells by fluorescent microscopy.
Statistical significance for GSH and QR levels were established by the unpaired t test using the INSTAT statistics program (Graphpad, San Diego, Calif.). The Ki of oltipraz was determined by performing Segal transformations (26) of Dixon plots. […] Calculations were performed on spreadsheets using Lotus 1-2-3 software (Cambridge, Mass.).

[2] = cited from earlier work
[3] = single 250 mg dose, adults, cited from earlier work
[4] = system: H9 cells; assay: Cytotoxicity in H9 cells by trypan blue exclusion; assay type: cell-based, human; details: concentrations up to 120 μM, H9 cells
[5] = biological target: T1, HIV-1 reverse transcriptase (RT) (Human immunodeficiency virus type 1 group M subtype B, UniProt P04585); assay: Inhibition of recombinant HIV-1 reverse transcriptase (TTP incorporation); assay type: biochemical; details: for Ki: Segal transformation of Dixon plots
T1 construct: Recombinant HIV-1 reverse transcriptase (RT) was obtained from Worthington (Freehold, N.J.); purchased Worthington (Freehold, N.J.)
Procedure: Reverse transcriptase assays were performed as described by Flexner, et al. (25) using recombinant HIV-1 RT as the source of enzyme. Dilutions and assay were carried out in 96-well "half-area" plates. The enzyme with various concentrations of test compounds were dissolved in DPBS containing 1% w/v BSA and diluted in 50 μl volumes; 10 μl aliquots in triplicate were transferred to another plate for the enzyme assay. The reactions were initiated by the addition of 25 μl/well of buffer containing 50 mM Tris.cndot.Cl (pH 8.0), 75 mM KCl, 1 mM dithiothreitol, 2 mM MgCl2, 5 μg/ml poly(A), 2.5 μg/ml oligo (dT), 10 μCi/ml ^32 p TTP with or without unlabeled TTP. […] TTP incorporation was measured by spotting 20 μl of the reaction cocktail onto DE81 paper, washing the paper with 4×5 min washes of 300 mM NaCl and 30 mM sodium citrate (pH 7.0), drying the paper, and counting the paper by liquid scintillation counting. The assays performed with oltipraz and 1,2-dithiole-3-thione contained 0.29% final concentration DMSO. This concentration of DMSO had no effect on RT activity.

[6] = system: HIV-1 (HTLVIIIB); assay: microbe, parasite or virus in culture; assay type: cell-based
[7] = Dixon plots, listed as oltipraz

**Q.** For Cc1c(-c2cnccn2)ssc1=S [compound 11, 4-methyl-5-(2-pyrazinyl)-1,2-dithiole-3-thione], which IC50 ([1]; Human immunodeficiency virus 1, H9, read-out: IC50 as determined by p24 antigen release assays) is on record?
**A.** 14.8 ± 3.1 µM

**Q.** And the IC50 ([1]; Human immunodeficiency virus 1, H9, read-out: median dose (p24 release))?
**A.** 19.4 µM

**Q.** And the “synergy in inhibiting HIV-1 replication” value ([1]; listed as Oltipraz)?
**A.** highly synergistic with azidothymidine (AZT)

**Q.** What about the “synergy in inhibiting HIV-1 replication” value ([1]; listed as oltipraz) of the same compound?
**A.** acts synergistically with AZT

**Q.** What about the “tolerability at anti-HIV-1 doses” value ([2]; in vivo) of the same compound?
**A.** well tolerated

**Q.** What about the “tolerability of high doses” value ([2]; single or split doses of 20-35 mg/kg, treatment of schistosomiasis) of the same compound?
**A.** can be tolerated

**Q.** And the Cmax ([3]; read-out: peak serum level)?
**A.** > 4 µM

**Q.** And the peak serum level [3]?
**A.** greater than 1 μg/ml

**Q.** And the cytotoxicity [4]?
**A.** non-cytotoxic

**Q.** What about the “type of inhibition with respect to TTP” value [5, 7] of the same compound?
**A.** non-competitive inhibitor

**Q.** What about the “type of inhibition with respect to poly(A):oligo(dT)” value [5, 7] of the same compound?
**A.** mixed inhibitor

**Q.** And the Ki ([5]; N=2 experiments, read-out: Ki with respect to TTP)?
**A.** 183 ± 50 µM

**Q.** What about the Ki ([5]; N=3 experiments, read-out: Ki with respect to poly(A):oligo(dT)) of the same compound?
**A.** 189 ± 29 µM

**Q.** And the “synergy as inhibitors of reverse transcriptase” value ([5]; moderate to high levels of inhibition)?
**A.** synergistically with AZT 5'-triphosphate

**Q.** And the “inhibition of recombinant HIV-1 reverse transcriptase” value ([5]; poly(A):oligo(dT) and TTP as substrates)?
**A.** inhibitor

**Q.** What about the “inhibition of HIV-1 replication, result in words” value ([6]; H9 cells) of the same compound?
**A.** effective

**Q.** What about the “inhibitory potency less than that of AZT (HIV-1 replication)” value ([6]; H9 cells, relative to AZT (FIG. 3)) of the same compound?
**A.** approximately 100 fold

**Q.** And the IC50 ([6]; Human immunodeficiency virus 1, H9, read-out: IC50 HIV-1 replication (Exp 1))?
**A.** 2 µM

**Q.** What about the IC50 ([6]; Human immunodeficiency virus 1, H9, read-out: IC50 HIV-1 replication (Exp 2)) of the same compound?
**A.** 3 µM

**Q.** And the IC50 ([6]; Human immunodeficiency virus 1, H9, read-out: IC50 HIV-1 replication as determined by IFA)?
**A.** 9.7 ± 2 µM

**Q.** What about the “effect of pre-treatment of H9 cells with inducers on anti-HIV-1 activity” value ([6]; inducers 3-4 days prior to exposure to virus, listed as oltipraz) of the same compound?
**A.** did not increase the antiviral effect; also recorded: no enhancement of the anti-HIV-1 activity
